Experiments:
Type in all cases: cell-based
HIV-1 LTR promoter [1] = assay: dCas9-VPH/msgRNA (or SAHA) reactivation of latent LTR-eLuc reporter in TZM-bI cells; conditions: TZM-bI, transient transfection or lentivirus infection, 2 days
Experimental: Cells were plated in 96-well plate and the indicated MS2-gRNAs were cotransfected by Lipofectamine 3000 (FIG. 3A) or coinfected by lentiviruses (FIG. 3B, MOI=50) with pMSCV-LTR-dCas9-VP64-BFP plus pLV-MS2-p65-HSF1-GFP. Two days later, OneGlo luminescence assay was performed. The SIV MS2-gRNA-D was used as negative control. […] The gRNA-J has no effect due to 2 nucleotides mismatch to the LTR sequence from TZM-bI cells.
FIG. 8A, FIG. 8B, FIG. 8C, and FIG. 8D, depict the results of experiments of screening of MS2-mediated sgRNAs (msgRNAs) targeting the HIV-1 long terminal repeat (LTR) in the dCas9-synergistic activation mediator (SAM) system. FIG. 8A is a schematic illustration of SAM-VPH complex derived from dCas9-VP64 (V) and MS2-p65-HSF1 (PH) with msgRNAs. FIG. 8B is a graph showing similar activation of transfected EcoHIV-eLuc reporter by inducible (TRE) or constitutive (LTR) dCas9-VP64 expression in HEK293T cells. FIG. 8C is a graph showing similar reactivation of latent HIV-LTR-eLuc reporter in TZM-bI cells after either transient plasmid transfection by Lipofectamine 3000 or stable infection by lentivirus. […] The gRNA-J has no effect due to 2 nucleotides mismatch to the LTR sequence from TZM-bI cells. […]
FIG. 9A and FIG. 9B: TZM-bI cells were infected with dCas9-VPH and indicated msgRNA lentiviruses at 1 or 10 MOI and luciferase activity was measured at 2-21 days post-infection (dpi). […]
FIG. 12A, FIG. 12B, FIG. 12C: The dCas9-VPH stable TZM-bI cells were treated with SAHA or infected with indicated msgRNAs lentivirus for 2-4 d before luminescence reporter assay (FIG. 12A) and CELLTITER-GLO® luminescent cell viability assay (FIG. 12B). […]
Experiments were conducted to compare reactivation of HIV-LTR luciferase reporter in TZM-BI cells induced by gRNA/dCas9-VP64/MS2-p65-HSF1/delivered by either transient plasmid transfection (FIG. 3A) or stable lentivirus infection (FIG. 3B). […] Two days later, OneGlo luminescence assay was performed. […]

HIV-1 LTR promoter [2] = assay: dCas9-VP64/sgRNA reactivation of latent LTR-luciferase reporter in TZM-bI cells; conditions: sgRNA/dCas9-VP64 cotransfection, 3 days, relative to empty sgRNA control
From the text: FIG. 1A, FIG. 1B, and FIG. 1C, depict results of experiments comprising HIV-1 LTR-gRNA screening for dCas9-VP64-induced reactivation of latent LTR-luciferase reporter in TZM-bI cells. FIG. 1A is a schematic illustration depicting HIV-gRNA target sites. FIG. 1B is a schematic depicting gRNA/dCas9-VP64 binding to a target region of HIV-LTR that drives luciferase expression in TZM-bI cells. FIG. 1C depicts the results of experiments investigating the reactivation of HIV-LTR (as measured by luciferase reporter) induced by the various gRNAs. […] After 3 days, the luminescence of the cell lysate was measured with OneGlo luminescence kit. […]
Cultured cells were transfected using lipofectamine3000 transfection or lentivirus infection. The firefly-luciferase reporter assay was used using Envision multiplate reader. Treated and controls were imaged using fluorescent microscopy and/or were analyzed using flow cytometry. […]
(§1) Cells were cultured in a 96-well plate and transfected or transduced with indicated vectors. To examine the eLuc reporter activity, the cell lysate was prepared using the ONE-Glo luciferase assay system (Promega) and luminescence was measured in a 2104 ENVISION® Multilabel Reader (PerkinElmer). […]

HIV-1 LTR promoter [3] = assay: dCas9-VP64/MS2-p65-HSF1 (SAM, dCas9-VPH) with MS2-sgRNA: EcoHIV-eLuc reporter assay in HEK293T cells; conditions: MS2-sgRNA/dCas9-VP64/MS2-p65-HSF1, pEcoHIV-NL4-3-eLuc, MS2-p65-HSF1 only = 1.00
From the text: FIG. 2A, FIG. 2B, and FIG. 2C, depict results of experiments comprising HIV-1 LTR-MS2-gRNA screening for LTR reactivation by SAM complex dCas9-VP64/MS2-p65-HSF1 in HEK293T cells. FIG. 2A and FIG. 2B depict a schematic of complex formation at the target site, where the complex comprises MS2-binding gRNA, dCas9-VP64, and MS2-p65-HSF1. FIG. 2C is a graph depicting the results of experiments investigating the reactivation of HIV-LTR induced by the various MS2-binding gRNA using pEcoHIV-NL4-3-eLuc reporter assay. […]
as §1
Thus, the newly-developed MS2-mediated SAM system was applied (FIG. 8A), which combined dCas9-VP64 with MS2-p65-HSF1 clustered trans-activators, designated dCas9-VPH (Konermann et al., 2015, Nature 517:583-8). […] To determine if dCas9-VPH/msgRNAs induced a better reactivation of HIV-1 latency, HIV-latent TZM-bI cells was cotransfected or cotransduced with dCas9-VPH and indicated msgRNAs (FIG. 8C) and the latency-reversing capability was measured. […]

Row | Substance | reactivation of HIV-LTR-luciferase reporter (in words) (HIV-1 LTR promoter [1]) | sgRNA TZM-bI Fold (LTR-luciferase reporter) (HIV-1 LTR promoter [2]) | MS2-sgRNA HEK293T Fold (EcoHIV-eLuc reporter) (HIV-1 LTR promoter [3])
1 | MS2-p65-HSF1: MS2 bacteriophage coat protein fused to p65 and HSF1 transactivation domains (SEQ ID NO: 108) | did not influence the basal activity |  | 
2 | LTR-P |  | 1.15 Fold | 1.32 Fold

From patent US20180073018A1, “COMPOSITIONS AND METHODS FOR SPECIFIC REACTIVATION OF HIV LATENT RESERVOIR” (priority 2015, published 2018)
